Tests used:
[1] = system: SARS-CoV-2; test: microbe, parasite or virus in culture; assay type: cell-based; settings: for antiviral activity: human lung cells (Calu-3)
[2] = system: SARS-CoV-2; test: microbe, parasite or virus in culture; assay type: cell-based; settings: for IC50: Severe acute respiratory syndrome coronavirus 2, in Primates, Vero cells (monkey kidney cells) infected with SARS-CoV-2
[3] = Severe acute respiratory syndrome coronavirus 2, Calu-3 cells (human lung cells) infected with SARS-CoV-2

Row | SMILES | IC50 [2] [µM] | antiviral activity [1] | IC50 [1, 3] [µM] | other results
1 | Cc1cc(O)c2c(=O)c3c(O)cc(O)c4c5c(O)cc(O)c6c(=O)c7c(O)cc(C)c8c1c2c(c34)c(c78)c65 [Hypericin] | – | – | – | IC50 ([1]; Severe acute respiratory syndrome coronavirus 2, Calu-3): > 50 µM
2 | CCN(CC)CCCC(C)Nc1ccnc2cc(Cl)ccc12 (stereo not drawn) [chloroquine] | 8.89 | – | – | –
3 | Cc1cc(O)c2c(c1)C(=O)c1cc(O)cc(O)c1C2=O [Emodin] | – | exhibited antiviral activity | – | antiviral activity ([2]; Vero cells): significant antiviral activities
4 | Cc1cccc(C)c1OCC(=O)N[C@@H](Cc1ccccc1)[C@@H](O)C[C@H](Cc1ccccc1)NC(=O)[C@H](C(C)C)N1CCCNC1=O [lopinavir] | 11 | – | – | –
5 | CCN1CCN(c2cc(-c3ccc(F)cc3)c3c(n2)CCCCCC3)CC1 [Blonanserin] | – | – | > 50 | –
6 | COc1ncc(-c2ccc3nccc(-c4ccnnc4)c3c2)cc1NS(=O)(=O)c1ccc(F)cc1F [Omipalisib] | 0.49 | exhibited antiviral activity | 0.01 | –

Source: patent US12544360B2, “Pharmaceutical composition for preventing or treating coronavirus disease-19” (priority 2020, dated 2026)
